Laboratory results: patent US20230303572A1, “18-MC SALT FORMS” (Mind Medicine, Inc., priority 2022, published 2023)
Structures can show the parent of a compound that is named as a salt.

Assays:
[1] = tested on: substance use models (nicotine, alcohol, morphine, cocaine and methamphetamine); details: animal studies; dosages as low as 10 mg/kg i.p.; cited from earlier work
[2] = tested on: cocaine-seeking or "craving" behaviors; details: animal model; cited from earlier work
[3] = Physical form stability on storage at RT, air drying or exposure to ambient conditions (XRPD); assay type: physicochemical
From the text: (§1) For XRPD analysis, a PANalytical Empyrean and X′ Pert3 X-ray powder diffract meter was used.

[4] = Relative thermodynamic stability of HCl salt forms (desolvation and form conversion data); assay type: physicochemical
Procedure: Starting from HCl salt materials with different forms, a total of 100 polymorph screening experiments was performed using different crystallization methods including salt formation by liquid vapor diffusion/slurry at elevated temperature, evaporation at RT/high temperatures, slurry and reverse anti-solvent addition at different temperatures, slow/crash cooling, polymer induced crystallization and grinding. All the resulting solids were isolated for XRPD test, and new forms were further characterized by TGA, DSC, ^1H NMR and HPLC/ IC.
An additional polymorph screening was performed for 18-MC HCl salt.

[5] = Heating experiments and VT-XRPD (N2 drying, heating, cooling back): form change; assay type: physicochemical; details: for form conversion, summary statement: after desolvation
From the text: as §1

SMILES	effect on drug self-administration [1]	effect on cue-induced cocaine-seeking [2]	form change after storage (XRPD) ([3]; storage at RT for ~3 days)	Form after desolvation ([4]; RT storage or heat to 100° C. under N2)	form change after N2 drying (VT-XRPD) ([5]; N2-drying for 20 min at 30° C.)	form conversion, summary statement [5]	form change after heating (XRPD/VT-XRPD) ([5]; heating to 100° C.)	form change after heating (VT-XRPD) ([5]; heating to 180° C. under N2 protection)	change after air drying ([3]; air drying at RT, time not stated)	Form after desolvation ([4]; solvates of HCl salt, form after desolvation)	form change after heating (XRPD) ([5]; heating to 150° C.)
COCC[C@H]1CC2CN3CCc4c([nH]c5ccccc45)[C@](C(=O)OC)(C2)[C@H]13 [18-MC, 18-methoxycoronaridine]	significantly reduces drug self-administration	attenuate effects of the environmental cues									
COCC[C@H]1CC2CN3CCc4c([nH]c5ccccc45)[C@](C(=O)OC)(C2)[C@H]13 [HCl salt Type M, 18-methoxycoronaridine]			extra peaks of HCl salt Type A	HCl salt Type A**	no form change	converted to HCl salt Type A	peaks of HCl salt Type A were observed	most diffraction peaks were consistent with HCl salt Type A with extra peak similar to HCl salt Type K			
COCC[C@H]1CC2CN3CCc4c([nH]c5ccccc45)[C@](C(=O)OC)(C2)[C@H]13 [HCl salt Type S, 18-methoxycoronaridine]						converted to HCl salt Type A			turned to be gel like	HCl salt Type A	most diffraction peaks were consistent with HCl salt Type A
